Values quoted from earlier work as cited in US20080293724A1, “Methods Using Hydralazine Compounds and Isosorbide Dinitrate or Isosorbide Mononitrate” (NITROMED, INC., priority 2006, published 2008).
Counter-ions that a name gives are not always drawn.

solubility in alcohol (alcohol)	solubility in ether (ether)	SMILES	solubility in organic solvents (organic solvents such as ethanol, ether and chloroform)	solubility in water
–	–	O=[N+]([O-])O[C@H]1CO[C@H]2[C@@H]1OC[C@H]2O[N+](=O)[O-] [isosorbide dinitrate, 1,4,3,6-dianhydro-D-glucitol-2,5-dinitrate]	freely soluble	sparingly soluble
slightly soluble	very slightly soluble	NNc1nncc2ccccc12 [Hydralazine hydrochloride, hydralazine hydrochloride]	–	soluble
